Measurements taken from US7846436B2, “Oligonucleotides and related compounds” (ChemGenes Corporation, priority 2003, dated 2010).
[dFC] = 2'-deoxy-2',2'-difluorocytidine (gemcitabine) nucleoside, linked at the 5' end of the ODN; d = 2'-deoxy (DNA)

What was measured:
[1] = Stability studies in pyridine and ammonia (TLC, Rf, UV, HPLC); format: physicochemical; conditions: 37° C., 18 hrs
Experimental: The 2′-deoxy, 2′,2′-difluorocytidine derivatives, N-Bz-Gemcitabine and 5′-O-DMT-(N-bz) Gemcitabine prepared as above, were tested for their stability.

[2] = tested on: human colon adenocarcinoma cancerous cells HT29; assay: Flow cytometric DNA cell cycle profile, killing of colon cancer cells; format: cell-based; conditions: for killing colon cancer cells HT29, compared with Gemcitabine (Gemzar) alone at equivalent dosages: 20 and 50 ng/ml Gemzar equivalent, 1 hour treatment, then 47 hours in normal medium without drugs, FIG. 13
[3] = tested on: human colon normal cells CCD112CoN; assay: Flow cytometric DNA cell cycle profile, killing of colon normal cells; format: cell-based; conditions: 20 and 50 ng/ml Gemzar equivalent; 1 hour treatment, then 47 hours in normal medium without drugs; FIG. 14
Experimental: Monolayer cultures of human colon adenocarcinoma cancerous cells HT29 (American Type Culture Collection HTB-38), and human colon normal cells CCD112CoN (American Type Culture Collection CRL-1541) were grown in DMEM growth medium, or Dulbecco's modified Eagle's medium (DMEM; Sigma Chemical Co., St. Louis, Mo.) containing 10% fetal bovine serum (FBS; Biological Industries, Kibbutz, Israel). Incubation was in 10% CO2 at 37° C.
Gemzar (MW 299.5), or 2′-deoxy, 2′,2′-difluorocytidine hydrochloride for injection, as manufactured by Lilly France S.A., Fegersheim, France). Gemzar-ODNs were 2′-deoxy, 2′,2′-difluorocytidine (dFC, or difluorodeoxycitidine) linked to 4 oligodeoxynucleotide (ODN) sequences (synthesized by Chemgenes Corp, Wilmington, Mass.) as follows:
Aqueous stock solutions were prepared at the Gemzar or Gemzar-equivalent concentration of 0.2 mg/ml. Parallel monolayer cultures in log phase growth were treated for 1 hr at 37° C. with a final concentration of 0, 20 and 50 ng/ml of Gemzar or Gemzar equivalent from each of the 4 sequences of Gemzar-ODN that were synthesized. After the 1 hr pulse treatment with either Gemzar or Gemzar-ODNs, the cell cultures were reincubated for another 47 hr at 37° C. in normal DMEM growth medium without Gemzar or Gemzar-ODN. Control cultures were similar parallel cultures and had similar 1 hr and 47 hr reincubations, except without any Gemzar or Gemzar-ODN content. After the 47 hr reincubation, all cultures were evaluated at the same time for their DNA cell cycle profile using flow cytometry.
This was evaluated as previously described (Cell Death Differ. 4: 213-223, 1997; Exp. Cell Res. 240: 293-304, 1998). Propidium iodide (PI) stock solution was prepared at 50 ug/ml in tris buffered saline (1.21 mg/ml Tris, 0.584 mg/ml NaCl). Ribonuclease A (RNase A) was freshly added to the PI stock solution at 6 mg/ml immediately before use. Cells were harvested by scraping with a cell scraper and triturated to obtain a single cell suspension using a hypodermic syringe fitted with a 21-gauge needle. Cells were spun down at 1000 g for 5 min, and washed once in 5 ml phosphate buffered saline (PBS A, Oxoid, London, UK). Cells were then permeabilized by resuspending in 1% Bouin's fluid (15 parts 1.2% saturated aqueous picric acid, 5 parts formalin, 1 part glacial acetic acid) in PBS. Cells were repelleted and suspend in the PI-RNase for 1 hour over ice, before flow cytometric evaluation at ex/em 488/590 nm and 20,000 counts sample size. The Coulter Epics Elite ESP flow cytometer and Workstation program version 4.01 (Coulter Electronics, Hialeah, Fla.) were used with WinMDI version 2.8 (Scripps Research Institute, La Jolla, Calif.

Compound: O=C(Nc1ccn([C@@H]2O[C@H](CO)[C@@H](O)C2(F)F)c(=O)n1)c1ccccc1 [Compound II, N-Benzoyl-2′-deoxy, 2′,2′-difluorocytidine]
- stability (breakdown) in pyridine and ammonia [1]: converted into 2′-deoxy, 2′,2′-difluorocytidine completely without any deterioration and byproduct formation
- stability (breakdown) in pyridine and ammonia ([1]; listed as N-Bz-Gemcitabine): no breakdown of Gemcitabine, other than loss of the protecting group

Compound: COc1ccc(C(OC[C@H]2O[C@@H](n3ccc(NC(=O)c4ccccc4)nc3=O)C(F)(F)[C@@H]2O)(c2ccccc2)c2ccc(OC)cc2)cc1 [Compound III, 5′-O-DMT (N-Bz) 2′-deoxy, 2′,2′-difluorocytidine]
- stability (breakdown) in pyridine and ammonia [1]: no breakdown of Gemcitabine, other than loss of the protecting group

Compound: Cl.Nc1ccn([C@@H]2O[C@H](CO)[C@@H](O)C2(F)F)c(=O)n1 [Gemzar, 2′-deoxy, 2′,2′-difluorocytidine hydrochloride, reference compound]
- difference between the killing of cancer cells and normal cells ([2]; HT29 (FIG. 13) compared with CCD-112CO (FIG. 14) at equivalent dosages): only minimal difference

Compound: dFC GGA CG (NGGACG; sugars from the 5' end [dFC]1 d5, backbone, methylation of C and the base at N not given here) [GEMCITABINE-ODN-Seq. I.D.#7, Gemzar-ODN]
- killing colon cancer cells HT29, compared with Gemcitabine (Gemzar) alone at equivalent dosages [2]: much more effectively than by treatment with GEMCITABINE alone
- killing colon normal cells CCD-112CO, compared with Gemcitabine (Gemzar) alone at equivalent dosages [3]: more effectively than by treatment with GEMCITABINE alone

Compound: dFC GGA CGT GGA ACG (NGGACGTGGAACG; sugars from the 5' end [dFC]1 d12, backbone, methylation of C and the base at N not given here) [GEMCITABINE-ODN-Seq. I.D.#9, Gemzar-ODN]
- killing colon cancer cells HT29, compared with Gemcitabine (Gemzar) alone at equivalent dosages [2]: much more effectively than by treatment with GEMCITABINE alone
- killing colon normal cells CCD-112CO, compared with Gemcitabine (Gemzar) alone at equivalent dosages [3]: more effectively than by treatment with GEMCITABINE alone

Compound: dFC GGA GCT GGA ACG (NGGAGCTGGAACG; sugars from the 5' end [dFC]1 d12, backbone, methylation of C and the base at N not given here) [GEMCITABINE-ODN-Seq. I.D.#10, Gemzar-ODN]
- killing colon cancer cells HT29, compared with Gemcitabine (Gemzar) alone at equivalent dosages [2]: much more effectively than by treatment with GEMCITABINE alone
- killing colon normal cells CCD-112CO, compared with Gemcitabine (Gemzar) alone at equivalent dosages [3]: more effectively than by treatment with GEMCITABINE alone

Compound: dFC GTG GAA CG (NGTGGAACG; sugars from the 5' end [dFC]1 d8, backbone, methylation of C and the base at N not given here) [GEMCITABINE-ODN-Seq. I.D.#8, Gemzar-ODN]
- killing colon cancer cells HT29, compared with Gemcitabine (Gemzar) alone at equivalent dosages [2]: much more effectively than by treatment with GEMCITABINE alone
- killing colon normal cells CCD-112CO, compared with Gemcitabine (Gemzar) alone at equivalent dosages [3]: more effectively than by treatment with GEMCITABINE alone
